Laboratory results from patent US7741435B2, “Substance P-saporin (SP-SAP) conjugates and methods of use thereof” (Advanced Targeting Systems, Inc., priority 1997, dated 2010).

Legend:
[1] = biological target: T1, NK-1R (Rattus norvegicus, UniProt P14600); assay: Inhibition of radiolabeled SP binding to spinal cord membrane homogenates; details: iodinated SP 150 pM, 100 nM nonlabeled competitor, FIG. 4
T1 construct: from tissue; host or cells: membrane homogenate (spinal cord according to the assay title)
T1 sequence (P14600 whole entry): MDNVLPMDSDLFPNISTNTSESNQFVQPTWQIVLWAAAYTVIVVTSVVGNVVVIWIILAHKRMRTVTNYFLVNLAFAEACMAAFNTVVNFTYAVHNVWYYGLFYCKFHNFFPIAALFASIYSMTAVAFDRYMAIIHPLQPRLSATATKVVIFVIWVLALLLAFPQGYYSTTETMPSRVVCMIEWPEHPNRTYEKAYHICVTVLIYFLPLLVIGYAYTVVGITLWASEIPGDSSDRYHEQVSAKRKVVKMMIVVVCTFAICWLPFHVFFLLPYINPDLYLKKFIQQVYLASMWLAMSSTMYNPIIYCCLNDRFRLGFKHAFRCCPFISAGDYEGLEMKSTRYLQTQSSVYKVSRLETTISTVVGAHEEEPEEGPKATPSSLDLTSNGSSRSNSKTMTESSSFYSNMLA
Experimental: Homogenate is prepared and binding performed as previously described (26). […] Membrane-bound label is separated from free label by centrifugation and measured with a gamma counter. Control is no addition of competitor.

[2] = General observation after intrathecal infusion (body weight, food intake, behavior); type: in vivo, rat; details: for 28 days after intrathecal injection
[3] = test system: NK-1R-expressing spinal cord neurons; assay: Internalization and cytotoxicity in primary cultures of spinal cord neurons; type: cell-based, rat; details: for morphological or cytotoxic changes in NK-1R-expressing and non-NK-1R, MAP-2 neurons: treatment alone
Experimental: SP-SAP internalization and cytotoxicity was examined in primary cultures of neonatal rat spinal cord neurons where approximately 15% of the neurons express NK-1R. All procedures were approved by Animal Care Committee at the VA Medical Center and the University of Minnesota. Neurons were cultured from the spinal cords of 18-day embryonic Holtzman rats (Harlan Sprague Dawley, Madison, Wis.). The whole spinal cord was dissected out of the rat and placed in 4° C. Puck's saline supplemented with 40 mM. glucose, 50 mM sucrose, and 10 mM Hepes (DISG media, pH 7.4). The spinal cords were then dissociated by trituration (15-20 times) through a small bore serological pipet. The resulting cell suspension was centrifuged at 4° C. for 5 min at 1500 rpm in a Sorvall RC-3B centrifuge (DuPont, Newtown, Conn.). The supernatant was removed and the pellet resuspended in Dulbecco's modified Eagle's medium (DMEM; Sigma Chemical Co., St. Louis, Mo.) plus 5% equine serum and 5% calf serum (v/v) (Hyclone, Logan, Utah). The cell suspension was plated on poly-L-ornithine coated 2-well chamber slides at a density of 100,000 cells/ml, and incubated at 37° C. with 9% CO2. After 4 days the mitotic inhibitors, 5-fluoro-2′-deoxyuridine and uridine were added. At 7 days the media was replaced with DMEM plus 10% equine serum (v/v). The cells were incubated unil 14 days post-culture with media changes every 4th day.
At day 14 post-culture, either saline or SP, SP-SAP conjugate or saporin (SAP) were added to a final concentration of 10^−7 M. The cells were incubated for 12 hr with the SP-SAP or SAP compounds at which time the compounds were removed from the culture and fresh media was added. The cultures were then allowed to continue until the desired timepoints (2 hr. 1, 4, 7, and 10 days) at which time the experiment was terminated and the cells were processed for immunohistochemistry by fixing for 20 min at 22° C. with 4% formalin in a phosphate buffered saline solution as previously described (2,39-42). […] Two hours following treatment with 10^−7 M SP-SAP, but not 10^−7 M SAP, NK-1R internalization was visualized using an antibody that recognized NK-1R (FIG. 8A) and intracellular accumulation of SAP was visualized using an antibody that recognized SAP (FIG. 8B)
In contrast, one day following treatment with SP alone the majority of NK-1R had recycled to the plasma membrane. Thus, within 24 hours after SP-SAP internalization these neurons could no longer efficiently recycle NK-1R back to the plasma membrane.

[4] = test system: capsaicin-induced hyperalgesia in rats; assay: Capsaicin-induced nocifensive behavior and mechanical and heat hyperalgesia after intrathecal pretreatment; type: in vivo, rat; details: compared to normal untreated animals, any time point
Description: Measures of nocifensive behavior and hyperalgesia produced by intraplantar injection of capsaicin were obtained as described previously (48). Hyperalgesia is defined as an increase in withdrawal responses. The capsaicin model of hyperalgesia used in these experiments was chosen as it has been well characterized, it clearly produces hyperalgesia in humans and it is the only model of hyperalgesia that can be used in parallel animal and human studies. Capsaicin (Sigma Chemical Co., St. Louis, Mo.) was dissolved in a vehicle of 7.5% polyxyethylene sorbitan monooleate (Tween-80) and saline, and given into the plantar surface of one hindpaw. Each animal received one injection of […]. The duration of nocifensive behavior, defined as lifting and guarding the injected paw, was measured for the first five minutes after injection.
Withdrawal responses to heat were determined using a procedure previously described (49). […] The start of each trial activated a timer and withdrawal latencies to the nearest 0.1 sec were measured automatically by a photocell which terminated each trial and stopped the timer upon withdrawal of the paw. […]
To measure withdrawal responses to mechanical stimuli, rats were placed under a clear plastic cage on an elevated plastic mesh floor (1 cm^2 perforations). […] The frequency was determined for each hindpaw. […]

[5] = test system: NK-1R-expressing lamina I spinal cord neurons; assay: Cytotoxicity of intrathecal infusion in the spinal cord (immunohistochemistry, confocal microscopy); details: for change in NK-1R immunoreactivity in lamina I, spinal segments L2-L5: intrathecal injection alone, any time point examined; for change in cell number, morphology or fluorescence level of any of the cell markers examined: treatment alone, 28 days
Experimental: Animals were anesthetized with an intramuscular injection of Ketamine (100 mg/kg) & Acepromazine (1 mg/kg) and placed in a stereotaxic frame. An 8.5-cm length of PE-10 tubing (inner diameter: 0.28 mm, outer diameter: 0.61 mm), serving as an inflow cannula, was inserted into the subarachnoid space via an incision in the atlanto-occipital membrane. The cannula terminated in the caudal region of the lumbar enlargement (approximately L4). […] 5 min after spinal superfusion, the cannula was carefully withdrawn and the wound closed with 3-0 silk sutures.
Immunohistochemistry and fluorescent confocal microscopy was performed as previously described (46) using an MRC-1024 Confocal Imaging System (Bio-Rad, Boston, Mass.) and an Olympus BH-2 microscope equipped for epifluorescence (Lake Success, N.Y.). For cell counts the spinal cords were cut in the sagittal plane whereas for immunofluorescence measurements the spinal cords were cut in either the sagittal or coronal plane. Both of the microscopes were set up as previously described (46,47). SPR was detected by a polyclonal rabbit anti-SPR antibody (1:5000; a kind gift from S. Vigna) raised against a 15 amino acid peptide sequence (SPR393-407) at the COOH-terminus of the rat SPR. […] Calbindin was detected by a monoclonal mouse anti-calbindin antibody (Sigma, 1:300). Microtubule-associated protein (MAP-2) was detected by a monoclonal mouse anti MAP-2 antibody (Sigma, 1:750). Choline acetyl transferase (CHAT) was detected by a monoclonal mouse anti-ChAT antibody (Chemicon, 1:500). Glial Fibrillary Acidic Protein was detected by a polyclonal rabbit anti-GFAP antibody (DAKO, 1:450). OX-42 was detected using a monoclonal mouse antibody (Chemicon, 1:2,000). Saporin was detected by a polyclonal goat anti-Saporin antibody (Advanced Targeting Systems, 1:350). […] All primary (overnight, 22° C.) and secondary (3 hours, 22° C.) antibodies were applied in cocktails with 1% goat serum and 0.3% Triton X-100 in PBS solution. Finally, the tissue sections were washed for 20 min in PBS (pH 7.4, 22_C), mounted onto gelatin-coated slides, and coverslipped using PBS-glycerine containing 1.0% p-phenylenediamine to reduce photobleaching.
To determine the number of immunofluorescent cell bodies (Table 1) the slides were viewed through a 1.0 cm^2 eyepiece grid, which was divided into one hundred 1 mm×1 mm units, and the total number of immunofluorescent cell bodies/unit area were counted. To calculate SPR immunofluorescence intensity, images of the 60 μm thick tissue sections were obtained with the BioRad MRC1024 laser scanning confocal fluorescent imaging system and analyzed using NIH Image 1.7.
Cell numbers and immunofluorescence levels were determined using confocal microscopy. […] All data points represent an n=6 and are expressed as +/−s.e.m. and significant differences calculated by a one-way ANOVA and Bonferroni comparisons (* denotes P<0.01).

[6] = L4 segment, 28 days post-treatment, intrathecal, n=6, ± s.e.m.

Row | Compound | inhibition of iodinated SP binding [1] | changes in body weight, food intake, alertness, locomotion or grooming behavior [2] | morphological or cytotoxic changes in NK-1R-expressing and non-NK-1R, MAP-2 neurons ([3]; 10^−7 M) | change in mechanical or thermal hyperalgesia, or nocifensive behavior produced by capsaicin [4] | change in NK-1R immunoreactivity in lamina I, spinal segments L2-L5 [5] | change in cell number, morphology or fluorescence level of any of the cell markers examined [5] | also measured
1 | neurokinin B | little or no inhibition |  |  |  |  |  | 
2 | SAP: potent ribosome-inactivating protein isolated from the seeds of the plant Saponaria officinalis | little or no inhibition | no detectable changes | no significant morphological or cytotoxic changes | no significant change | no change | did not produce a significant change | Percent immunoreactive positive cells (saline = 100), SP (DRG) ([5]; L4 dorsal root ganglia, 28 days post-treatment, intrathecal, n=6, ± s.e.m.): 91 ± 11%; Percent immunofluorescence level, GFAP (lamina I) [5, 6]: 90 ± 13%; Percent immunofluorescence level, MAP-2 (lamina I) [5, 6]: 100 ± 14%; Percent immunofluorescence level, SP (laminae I and II) [5, 6]: 96 ± 3%; Percent immunofluorescence level, SPR (laminae I and II) [5, 6]: 95 ± 3%; Percent immunoreactive positive cells (saline = 100), Calbindin (laminae I and II) [5, 6]: 96 ± 7%; Percent immunoreactive positive cells (saline = 100), ChAT (motor neurons) [5, 6]: 116 ± 24%; Percent immunoreactive positive cells (saline = 100), SPR (lamina III and IV) [5, 6]: 79 ± 13%; Percent immunoreactive positive cells (saline = 100), SPR (laminae I and II) [5, 6]: 80 ± 16%; Percent immunofluorescence level, SPR (preganglionic sympathetic) ([5]; spinal segment T10, 28 days post-treatment, intrathecal, n=6, ± s.e.m.): 100 ± 9%
3 | RPKPQQFFGLM [SP] |  | no detectable changes | no significant morphological or cytotoxic changes | no significant change | no change | did not produce a significant change | NK-1R internalization ([3]; 10^−7 M, cultured spinal cord neurons): induced a rapid and similar degree of NK-1R internalization
4 | COc1ccccc1CC(=N)N1C[C@@H]2C(=O)CCC(c3ccccc3)(c3ccccc3)[C@@H]2C1 [RP67580] |  |  |  |  |  |  | block of SP- and SP-SAP-induced NK-1R internalization ([3]; 5×10^−6 M antagonist): blocked
5 | neurokinin A | significant interaction with the NK-1R |  |  |  |  |  | 
